According to PubChem BioAssay (NCI):
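Five concentrations, 48 hours, 96-well plates. TGI denotes the concentration required for complete inhibition of growth.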

How the values were obtained:
Test in all cases: growth of human tumour cells (NCI), 48 h
SF-539 CNS = test system: SF-539 CNS
OVCAR-8 ovarian = test system: OVCAR-8 ovarian
OVCAR-5 ovarian = test system: OVCAR-5 ovarian
CAKI-1 renal = test system: CAKI-1 renal
SF-295 CNS = test system: SF-295 CNS
HOP-92 NSCLC = test system: HOP-92 NSCLC
NCI-H460 lung = test system: NCI-H460 lung
SK-OV-3 ovarian = test system: SK-OV-3 ovarian
SW-620 colon = test system: SW-620 colon
U251 CNS = test system: U251 CNS
SK-MEL-5 melanoma = test system: SK-MEL-5 melanoma
HS 578T breast = test system: HS 578T breast
MDA-MB-231 breast = test system: MDA-MB-231 breast
HOP-62 NSCLC = test system: HOP-62 NSCLC
MOLT-4 leukemia = test system: MOLT-4 leukemia
HL-60(TB) leukemia = test system: HL-60(TB) leukemia
K-562 leukemia = test system: K-562 leukemia
CCRF-CEM leukemia = test system: CCRF-CEM leukemia
OVCAR-4 ovarian = test system: OVCAR-4 ovarian
COLO 205 colon = test system: COLO 205 colon

| Compound | TGI (SF-539 CNS) [µM] | TGI (OVCAR-8 ovarian) [µM] | TGI (OVCAR-5 ovarian) [µM] | TGI (CAKI-1 renal) [µM] | TGI (SF-295 CNS) [µM] | TGI (HOP-92 NSCLC) [µM] | TGI (NCI-H460 lung) [µM] | TGI (SK-OV-3 ovarian) [µM] | TGI (SW-620 colon) [µM] | TGI (U251 CNS) [µM] | TGI (SK-MEL-5 melanoma) [µM] | TGI (HS 578T breast) [µM] | TGI (MDA-MB-231 breast) [µM] | TGI (HOP-62 NSCLC) [µM] | TGI (MOLT-4 leukemia) [µM] | TGI (HL-60(TB) leukemia) [µM] | TGI (K-562 leukemia) [µM] | TGI (CCRF-CEM leukemia) [µM] | TGI (OVCAR-4 ovarian) [µM] | TGI (COLO 205 colon) [µM] |
| --- | --- | --- | --- | --- | --- | --- | --- | --- | --- | --- | --- | --- | --- | --- | --- | --- | --- | --- | --- | --- |
| c1ccc2c(c1)c1c(n2CCOCCN2CCOCC2)CCCC1 | > 100 | > 100 | > 100 | > 100 | 50 | 71.9 | > 100 | > 100 | > 100 | 64.6 | 48.9 | > 100 | 47 | > 100 | 69.8 | 51.9 | > 100 | 69.4 | 86.8 | – |
| C=CCNC(=S)N=Nc1c(O)[nH]c2ccc([N+](=O)[O-])cc12 | > 100 | > 100 | > 100 | > 100 | > 100 | > 100 | > 100 | > 100 | > 100 | > 100 | > 100 | > 100 | > 100 | > 100 | > 100 | > 100 | > 100 | 41.5 | > 100 | > 100 |
| CCC1=NC(C(F)(F)F)(C(F)(F)F)N=C(N2CCOCC2)O1 | > 100 | > 100 | > 100 | > 100 | > 100 | > 100 | > 100 | > 100 | > 100 | > 100 | > 100 | > 100 | > 100 | – | > 100 | > 100 | > 100 | > 100 | > 100 | > 100 |
| Cn1ccnc1C(O)(c1nccn1C)c1nccn1C | – | > 100 | > 100 | > 100 | > 100 | > 100 | > 100 | – | > 100 | > 100 | > 100 | – | – | > 100 | – | > 100 | – | – | > 100 | > 100 |
